These results are taken from patent US6555091B1, “Polypeptide capable of reacting with antibodies of patients suffering from multiple sclerosis and uses” (Bio Merieux, priority 1997, dated 2003).

Common to all, as to format: binding, human
The subject of test [1] is IgM of cerebrospinal fluids from patients suffering from MS. The experiment in a line: ELISA of pentadecapeptide phage clones, IgM response of CSFs (FIG. 6). The note with it: CSF 4 and CSF 7 (MS), CSF 12 (other neurological disease), CSFs diluted 1/10. An excerpt:
FIG. 6 represents the IgM response of the CSFs with respect to phages expressing the sequences SEQ ID NO: 14 (EPM), SEQ ID NO: 13 (FCP), SEQ ID NO: 16 (SRG), SEQ ID NO: 17 (QSP) , with respect to the wild-type phage (without an expressed sequence) and another nonspecific sequence (RTG); this representation is given by a histogram grouping together the results expressed as optical density values obtained for each CSF reduced by those obtained with PBS buffer controls in place of the phages; the immunoreactivity of the phage clones is tested in ELISA as described in Example 2, with respect to CSFs diluted 1/10; CSF 12 corresponds to a patient suffering from a neurological disease other than MS; CSF 4 and CSF 7 correspond to two patients suffering from MS.
In a first instance, 100 μl of anti-M13 phage antibodies diluted 1/500 in 0.1M NaHCO3, pH 8.6 (marketed by Prinn, Inc. Boulder, Colo. 80303) are bound overnight in the wells of Nunc maxisorb (trade name) microtiter plates. […] The optical density is measured on a BioMérieux plate reader at 492 nm. The IgM response is determined by addition of 100 μl of biotinylated anti-IgM conjugate diluted 1/4000 (Biomérieux monoclonal antibody) followed by the addition, after the washes, of the streptavidin-peroxidase conjugate diluted 1/10,000. […]
In general terms: An ELISA detects its analyte on a solid surface through an enzyme-linked reagent.

In test [2] the test system is IgG of CSF from patients suffering from MS. The test can be described thus: ELISA of polypeptides, IgG response of CSFs diluted 1/10 (Table 5, FIGS. 7A and 7B). The following applies: for number of positive (+) CSFs: total line, 15 MS patients, CSF 1/10. Also noted: key to IgG recognition by CSF: positive (+) if the OD value at 492 nm for a 1/10 dilution of the CSF is greater than the mean values obtained for the CSFs from the ND patients+3 times the standard deviation. An excerpt: FIGS. 7A and 7B represents the IgG response of the polypeptides whose peptide sequence consists of, respectively, SEQ ID NO: 13, SEQ ID NO: 12, SEQ ID NO: 14, SEQ ID NO: 16, SEQ ID NO: 19 and SEQ ID NO: 15, with respect to CSFs diluted 1/10; the results assembled in the appended Table 5 are expressed by the difference in the optical density values obtained for the polypeptide tested and the values obtained for the HIV polypeptide used as control; ND corresponds to patients suffering from a neurological disease other than MS, and MS* corresponds to patients suffering from MS.
Table 5, illustrated in FIGS. 7A and 7B, collates the results on the specific recognition of CSF from patients suffering from MS for 6 polypeptides of the invention, SEQ ID NO: 13, SEQ ID NO: 12, SEQ ID NO: 14, SEQ ID NO: 16, SEQ ID NO: 19 and SEQ ID NO: 15.
For each polypeptide tested, identified in Table 5 by its peptide sequence, the CSFs from patients 1-22 suffering from Ms are determined as positive (+) if the OD value at 492 nm for a 1/10 dilution of the CSF is greater than the mean values obtained for the CSFs from the ND patients+3 times the standard deviation.

The test system of test [3] is IgG of pool of positive sera (MS remission sera). The experiment in a line: ELISA of pentadecapeptide phage clones, pool of positive sera versus pool of negative sera. The note with it: phage clones carrying the sequence; 1/200 serum dilution; pool of positive sera compared with pool of negative sera. On the procedure: In a first instance, 100 μl of anti-M13 phage antibodies diluted 1/500 in 0.1M NaHCO3, pH 8.6 (marketed by Prinn, Inc. Boulder, Colo. 80303) are bound overnight in the wells of Nunc maxisorb (trade name) microtiter plates. After three washes with TBS/0.05% Tween, the plates are passivated for 1 hour at 37° C. with 250 μl of TBS containing 10% goat serum and again washed three times with the same buffer. 100 μl of various purified phage clones are then incubated for 2 hours at 37° C. in the wells. […] After four washes in TBS/0.05% Tween, 100 μl of peroxidase-labeled anti-human IgG conjugate diluted 1/10,000 (marketed by Jackson Immuno Research Laboratories Inc.) are added before an incubation for one hour at 37° C. […] The staining reaction is interrupted by the addition of 50 μl of 1.8N sulfuric acid. The optical density is measured on a BioMérieux plate reader at 492 nm. The IgM response is determined by addition of 100 μl of biotinylated anti-IgM conjugate diluted 1/4000 (Biomérieux monoclonal antibody) followed by the addition, after the washes, of the streptavidin-peroxidase conjugate diluted 1/10,000.
A library of pentadecapeptides carried on 300 copies of the phage protein VIII was constructed on the same principle as the hexapeptide library using the vector f88-4 according to the work by Greewood et al. (J. Biol. Mol. 1991). […]

No end group written: not given here.

For the sequence EPMTPHQWITLYRSY (MSRV) [SEQ ID NO: 14], in test [1], the “recognition of the phage clone by CSFs” value is recorded as “recognized only by CSF 7”. In addition, the “IgG recognition by CSF” value in test [2] (CSF of MS patient 1, 1/10) is on record as “+”; in test [2] (CSF of MS patient 2, 1/10) it was “+”; in test [2] (CSF of MS patient 3, 1/10), “+”; in test [2] (CSF of MS patient 5, 1/10) it was “+”; in test [2] (CSF of MS patient 7, 1/10) it was “+”; in test [2] (CSF of MS patient 10, 1/10) it was “+”. Also, the “IgG recognition by CSF” value in test [2] (CSF of MS patient 18, 1/10) is listed as “+”; in test [2] (CSF of MS patient 21, 1/10), “+”. Moreover, the “number of positive (+) CSFs” value in test [2] is 8+.

Turning to FCPPILPYSAWCPVP (MSRV) [SEQ ID NO: 13], the “recognition of the phage clone by CSFs” value in test [1] was “recognized specifically by CSFs 7 and 4”. Also, the “IgG recognition by CSF” value was “+” in test [2] (CSF of MS patient 1, 1/10); “+” in test [2] (CSF of MS patient 2, 1/10); “+” in test [2] (CSF of MS patient 3, 1/10); “+” in test [2] (CSF of MS patient 5, 1/10); “+” in test [2] (CSF of MS patient 7, 1/10); “+” in test [2] (CSF of MS patient 8, 1/10). The “IgG recognition by CSF” value is recorded as “+” in test [2] (CSF of MS patient 10, 1/10); “+” in test [2] (CSF of MS patient 18, 1/10); “+” in test [2] (CSF of MS patient 20, 1/10); “+” in test [2] (CSF of MS patient 21, 1/10). Further, in test [2], the “number of positive (+) CSFs” value is 10+.

MPVSRLCIELDWCPP (MSRV) [SEQ ID NO: 12]: the “IgG recognition by CSF” value in test [2] (CSF of MS patient 1, 1/10) is “+”; in test [2] (CSF of MS patient 2, 1/10), “+”; in test [2] (CSF of MS patient 5, 1/10), “+”; in test [2] (CSF of MS patient 6, 1/10), “+”; in test [2] (CSF of MS patient 7, 1/10), “+”; in test [2] (CSF of MS patient 8, 1/10), “+”. For the same sequence, the “IgG recognition by CSF” value in test [2] (CSF of MS patient 10, 1/10) is “+”; in test [2] (CSF of MS patient 16, 1/10), “+”; in test [2] (CSF of MS patient 18, 1/10), “+”; in test [2] (CSF of MS patient 21, 1/10), “+”. Moreover, in test [2], the “number of positive (+) CSFs” value is recorded as 10+.

Turning to “NACYVDLFLGASVCP (cysteine pairing not given here) [SEQ ID NO: 10, pentadecapeptide carried by phage clones]”, in test [3], the “average positive IgG response” value is listed as 0.069.

In the case of RGTQEWTELWVSFRA (MSRV) [SEQ ID NO: 19], the “IgG recognition by CSF” value in test [2] (CSF of MS patient 5, 1/10) was “+”; in test [2] (CSF of MS patient 6, 1/10), “+”; in test [2] (CSF of MS patient 7, 1/10), “+”; in test [2] (CSF of MS patient 8, 1/10), “+”; in test [2] (CSF of MS patient 10, 1/10), “+”; in test [2] (CSF of MS patient 18, 1/10), “+”. For the same sequence, the “IgG recognition by CSF” value in test [2] (CSF of MS patient 21, 1/10) is “+”; in test [2] (CSF of MS patient 22, 1/10) it was “+”. Further, in test [2], the “number of positive (+) CSFs” value is listed as 8+.

Consider SRGSHEWAVLFRFYY (MSRV) [SEQ ID NO: 16], for which the “IgG recognition by CSF” value in test [2] (CSF of MS patient 1, 1/10) is “+”; in test [2] (CSF of MS patient 2, 1/10), “+”; in test [2] (CSF of MS patient 3, 1/10), “+”; in test [2] (CSF of MS patient 5, 1/10), “+”; in test [2] (CSF of MS patient 6, 1/10), “+”; in test [2] (CSF of MS patient 7, 1/10) it was “+”. Also, the “IgG recognition by CSF” value is reported as “+” in test [2] (CSF of MS patient 8, 1/10); “+” in test [2] (CSF of MS patient 10, 1/10); “+” in test [2] (CSF of MS patient 18, 1/10); “+” in test [2] (CSF of MS patient 21, 1/10); “+” in test [2] (CSF of MS patient 22, 1/10). Also, the “number of positive (+) CSFs” value in test [2] is given as 11+.

Consider “SSAKSHCYAFCSGLP (cysteine pairing not given here) [SEQ ID NO: 11, pentadecapeptide carried by phage clones]”, for which, in test [3], the “average positive IgG response” value is reported as 0.248.
